# In patent EP0904269B1, “3,4-DIARYL-2-HYDROXY-2,5-DIHYDROFURANS AS PRODRUGS TO COX-2 INHIBITORS” (Merck Frosst Canada & Co., priority 1995, dated 1997):
# System: Rat Paw Edema
# Assay: Rat paw edema assay (carrageenan-induced)
# Format: in vivo, Male Sprague-Dawley rats
# Details: dose of prodrug, po, required to reduce edema formation by 50% as compared to the vehicle control
# Description: Male Sprague-Dawley rats (150-200 g) are fasted overnight and are given, po, either vehicle (1% methocel or 5% Tween 80) or a test compound. One hr later, a line is drawn using a permanent marker at the level above the ankle in one hind paw to define the area of the paw to be monitored. The paw volume (V0) is measured using a plethysmometer (Ugo-Basile, Italy) based on the principle of water displacement. The animals are then injected subplantarly with 50 µl of 1% carrageenan solution in saline (FMC Corp, Maine) into the paw using an insulin syringe with a 25-gauge needle (i.e. 500 µg carrageenan per paw). Three hr later, the paw volume (V3) is measured and the increases in paw volume (V3 - VO) are calculated. The animals are sacrificed by CO2 asphyxiation and the absence or presence of stomach lesions scored. Data is compared with the vehicle-control values and percent inhibition calculated. All treatment groups are coded to eliminate observer bias.
# Compounds of the present invention are prodrugs of inhibitors of COX-2 and are thereby useful in the treatment of COX-2 mediated diseases as enumerated above. The extent of conversion of these compounds to the active COX-2 inhibitors may be seen in the representative results shown below along with their antiinflammatory activity. The plasma levels indicated are the maximum rat plasma concentrations of the active COX-2 inhibitor observed when the rat was treated with a 20 mg/kg oral dose of the indicated prodrug. The ED50 values in the rat paw edema assay represent the dose of prodrug required to reduce edema formation by 50% as compared to the vehicle control.
row,Structure (SMILES),ED50
1,"CS(=O)(=O)c1ccc(C2=C(c3cccnc3)C(O)CC2)cc1 (centres unmarked) [Example 40, 3-(4-Methylsulfonylphenyl)-2-(3-pyridinyl)-2-cyclopenten-1-ol]",1.5 mg/kg
2,"CS(=O)(=O)c1ccc(C2=C(c3ccccc3)C(O)CC2)cc1 (centres unmarked) [Example 13, 3-(4-(Methylsulfonyl)phenyl)-2-phenyl-2-cyclopenten-1-ol]",0.9 mg/kg
3,"CC(C)OC1=C(c2ccc(S(C)(=O)=O)cc2)C(C)(C)OC1O (centres unmarked) [Example 39, 3-Isopropoxy-5,5-dimethyl-4-(4-methylsulfonylphenyl)-2,5-dihydrofuran-2-ol]",2.7 mg/kg
4,"CC1(C)OC(O)C(Oc2ccc(F)c(F)c2)=C1c1ccc(S(C)(=O)=O)cc1 (centres unmarked) [Example 10, 5.5-Dimethyl-3-(3,4-difluorophenoxy)-2-hydroxy-4-(4-(methylsulfonyl)phenyl)-2.5-dihydrofuran]",0.09 mg/kg
5,"CC1(C)OC(O)C(c2cccc(F)c2)=C1c1ccc(S(C)(=O)=O)cc1 (centres unmarked) [Example 1, 5,5-Dimethyl-3-(3-fluorophenyl)-2-hydroxy-4-(4-methylsulfonylphenyl)-2.5-dihydrofuran]",2.5 mg/kg
6,"CC1(C)OC(O)C(c2cc(F)cc(F)c2)=C1c1ccc(S(C)(=O)=O)cc1 (centres unmarked) [Example 2, 3-(3,5-Difluorophenyl)-5,5-dimethyl-2-hydroxy-4-(4-(methylsulfonyl)phenyl)-2,5-dihydrofuran]",0.7 mg/kg
7,"CC1(C)OC(O)C(Oc2cccc(F)c2)=C1c1ccc(S(C)(=O)=O)cc1 (centres unmarked) [Example 9, 5.5-Dimethyl-3-(3-fluorophenoxy)-2-hydroxy-4-(4-(methylsulfonyl)phenyl)-2,5-dihydrofuran]",1.7 mg/kg
8,"CC(OC1=C(c2ccc(S(C)(=O)=O)cc2)C(C)(C)OC1O)C1CC1 (centres unmarked) [Example 44, 3-(1-Cyclopropylethoxy)-5,5-dimethyl-4-(4-methylsulfonylphenyl)-2,5-dihydrofuran-2-ol]",1.6 mg/kg
